Measurements reported in patent US9493455B2, “Azaindole derivatives as inhibitors of protein kinases” (ORIBASE PHARMA, priority 2012, dated 2016).

What was measured:
[1] = test system: HepG2 cells; experiment: Xenograft mouse model, human hepatocellular carcinoma; assay type: in vivo, mice
Protocol: (§1) Several xenograft mouse models were prepared: • 1) imatinib-resistant leukemia by subcutaneously implanting Ba/F3 T315I cells (1×10^8 cell/mL in sterile PBS), into the right flank of athymic nude male mice (HSD, 6-7 weeks old). When the tumor volume reached approximately 50 mm^3, mice were assigned randomly to either vehicle alone or OR0512 treatment groups (five mice per group). Mice were treated with either vehicle (DMSO) or OR0512 (40 mg/kg q.d.; per os for 11 consecutive days). • 2) human pancreatic adenocarcinoma model by subcutaneously implanting BxPC-3 cells (1×10^7 cell/mL in sterile PBS), into the right flank of athymic nude male mice (HSD, 6-7 weeks old). […]
(§2) Tumor volumes in mm^3 were determined three times a week with a digital caliper and calculated using the following formula: Tumor Volume (mm^3)=length (mm)×width (mm)×width (mm)×½. Body weight was measured three times a week, and mice were observed daily for monitoring signs of stress to detect possible toxicities. […] Data were analyzed with Prism 5.0b (GraphPad Software) by one-way ANOVA with Bonferroni post hoc. Tumor Growth Inibition (TGI) is calculated as the percent decrease of tumor growth at the end of the study in the OR0512 treatment group in comparison to the vehicle alone treatment group.

[2] = test system: BxPC-3 cells; experiment: Xenograft mouse model, human pancreatic adenocarcinoma; assay type: in vivo, mice
Protocol: as §1, §2

[3] = test system: BaF3 WT; experiment: In vitro cell proliferation assay (MTT); assay type: cell-based; conditions: Mus musculus, BaF3, 72 h
Method in brief: (§3)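 Cells were seeded at 5×10^3 per well and exposed in duplicate to escalating compound concentrations from 10 nM to 3 μM for 72 hr. Proliferation was then measured by MTT reduction.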

[4] = test system: BaF3 T315I; experiment: In vitro cell proliferation assay (MTT); assay type: cell-based; conditions: Mus musculus, BaF3, 72 h
Method in brief: as §3

[5] = test system: BxPC-3; experiment: In vitro cell proliferation assay (MTT); assay type: cell-based; conditions: Homo sapiens, BXPC-3, 72 h
Method in brief: as §3

[6] = test system: HepG2; experiment: In vitro cell proliferation assay (MTT); assay type: cell-based; conditions: Homo sapiens, HepG2, 72 h
Method in brief: as §3

[7] = test system: HuH6 Clone 5; experiment: In vitro cell proliferation assay (MTT); assay type: cell-based; conditions: HUH-6-clone5, 72 h
Method in brief: as §3

[8] = test system: HT29; experiment: In vitro cell proliferation assay (MTT); assay type: cell-based; conditions: Homo sapiens, HT-29, 72 h
Method in brief: as §3

[9] = test system: HRMEC; experiment: In vitro cell proliferation assay (MTT); assay type: cell-based; conditions: 72 h
Method in brief: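 Seed 5×10^3 cells per well. Add compound at rising doses (10 nM to 3 μM), run in duplicate. Incubate 72 hr, then quantify growth with MTT.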

[10] = test system: Caki-2; experiment: In vitro cell proliferation assay (MTT); assay type: cell-based; conditions: Homo sapiens, CAKI-2, 72 h
Method in brief: as §3

[11] = test system: HuH7; experiment: In vitro cell proliferation assay (MTT); assay type: cell-based; conditions: Homo sapiens, Huh-7, 72 h
Method in brief: as §3

[12] = test system: A549; experiment: In vitro cell proliferation assay (MTT); assay type: cell-based; conditions: Homo sapiens, A549, 72 h
Method in brief: as §3

[13] = test system: HuCCT1; experiment: In vitro cell proliferation assay (MTT); assay type: cell-based; conditions: Homo sapiens, HuCCT-1, 72 h
Method in brief: as §3

[14] = test system: H1975; experiment: In vitro cell proliferation assay (MTT); assay type: cell-based; conditions: Homo sapiens, NCI-H1975, 72 h
Method in brief: as §3

[15] = test system: BaF3 E255K + M351T; experiment: In vitro cell proliferation assay (MTT); assay type: cell-based; conditions: Mus musculus, BaF3, 72 h
Method in brief: as §3

[16] = test system: HUVEC; experiment: In vitro cell proliferation assay (MTT); assay type: cell-based; conditions: Homo sapiens, 72 h
Protocol: Cancer cell lines (5×10^3 cells per well) or HUVEC (1×10^4 cells per well) or HRMEC (1×10^4 cells per well) were distributed in 96-well plates and incubating in duplicate with escalating concentrations (10 nM to 3 μM) of compounds for 72 hr. Cell proliferation was measured using MTT (3 [4,5-dimethylthiazol-2-yl]-2,5-diphenyltetrazolium bromide).

[17] = test system: BaF3 G250E; experiment: In vitro cell proliferation assay (MTT); assay type: cell-based; conditions: Mus musculus, BaF3, 72 h
Method in brief: as §3

[18] = test system: Ba/F3 T315I cells; experiment: Xenograft mouse model, imatinib-resistant leukemia (CML); assay type: in vivo, mice
Protocol: as §1, §2

COC(=O)c1cc2cc(NCc3cc(NC(=O)c4ccc(CN5CCN(C)CC5)c(C(F)(F)F)c4)ccc3C)cnc2[nH]1 [OR0512]
Tumor Growth Inhibition - TGI ([1]; HepG2 xenograft, mice, 20 mg/kg q.d. per os, 15 days, versus vehicle, **P < 0.05): 69%** | decrease of tumor growth (in words) ([1]; xenografted mice, human hepatocellular carcinoma model): significantly induced a decrease of tumor growth | Tumor Growth Inhibition - TGI ([2]; BxPC-3 xenograft, mice, 20 mg/kg q.d. per os, 32 days, versus vehicle, **P < 0.05): 85%** | decrease of tumor growth (in words) ([2]; xenografted mice, human pancreatic adenocarcinoma model): significantly induced a decrease of tumor growth | EC50 [3]: ≤ 100 nM | EC50 [4]: ≤ 100 nM | EC50 [5]: ≤ 100 nM | EC50 [6]: ≤ 100 nM | EC50 [7]: ≥ 1000 nM | EC50 [8]: 100 to 1000 nM | EC50 [9]: ≤ 100 nM | EC50 [10]: ≤ 100 nM | EC50 [11]: ≤ 100 nM | EC50 [12]: ≤ 100 nM | EC50 [13]: 100 to 1000 nM | EC50 [14]: 100 to 1000 nM | EC50 [15]: ≤ 100 nM | EC50 [16]: ≤ 100 nM | EC50 [17]: ≤ 100 nM | Tumor Growth Inhibition - TGI ([18]; Ba/F3 T315I xenograft, mice, 40 mg/kg q.d. per os, 11 days, versus vehicle): 37% | decrease of tumor growth (in words) ([18]; xenografted mice, imatinib-resistant CML model expressing Bcr-Abl T315I): slight decrease of tumor growth
